Values of other authors as cited in US8084444B2, “Treatment of dermatitis with dehydroepiandrosterone-glucocorticoid combinations” (RxDino, LLC, priority 2004, dated 2011).

Settings: equivalent in glucocorticoid potency

SMILES | Approximate Glucocorticoid Dose Equivalent [mg]
C[C@]12CCC(=O)C=C1CC[C@@H]1[C@@H]2C(=O)C[C@@]2(C)[C@H]1CC[C@]2(O)C(=O)CO [Cortisone] | ~25
C[C@]12CCC(=O)C=C1CC[C@@H]1[C@@H]2[C@@H](O)C[C@@]2(C)[C@H]1CC[C@]2(O)C(=O)CO [Hydrocortisone] | ~20
C[C@]12C=CC(=O)C=C1CC[C@@H]1[C@@H]2[C@@H](O)C[C@@]2(C)[C@H]1CC[C@]2(O)C(=O)CO [Prednisolone] | ~5
C[C@]12C=CC(=O)C=C1CC[C@H]1[C@@H]3C[C@@H](O)[C@](O)(C(=O)CO)[C@@]3(C)C[C@H](O)[C@@]12F [Triamcinolone] | ~0.8
